Test results published in patent US20220411362A1, “DITERPENOID COMPOUNDS THAT ACT ON PROTEIN KINASE C (PKC)” (K-Gen, Inc., priority 2019, published 2022).

Key:
[1] = tested on: HL-60 (Leukemia) cell line; assay: Proliferation of HL-60; type: cell-based; conditions: for ratio of (IC50 of K01)/(IC50 of compound), HL-60: value in parenthesis; for IC50: Homo sapiens, HL-60, read-out: IC50 in μM HL-60 (Leukemia)
In short: (§1)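 Cells seeded at 800-1000 (KP-4), 5000 (HL-60) or 5000-10000 (Namalwa, Mino) per well, then treated with 3-fold serial dilutions (final DMSO ≤0.25%) for 96 h. Viability read by CellTiter Glo luminescence, % inhibition vs DMSO; IC50 normalised across batches as IC50 of comparator K01 / IC50 of compound.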

[2] = tested on: Mino (Lymphoma) cell line; assay: Proliferation of Mino; type: cell-based; conditions: for IC50: Homo sapiens, MINO, read-out: IC50 in μM Mino (Lymphoma); for ratio of (IC50 of K01)/(IC50 of compound), Mino: value in parenthesis
In short: as §1

C1b domain of human PKCδ = target: T1, C1b domain of human PKCδ (Homo sapiens, UniProt Q05655); assay: Competitive 3H-PDBu binding to C1b domain of PKCδ; conditions: Ki PKCδ, 3H-PDBu competition
T1 construct: Genes encoding C1b domains of human PKCα, δ, ε, θ, and PKD1 (PKCμ) were synthesized; made in house; host or cells: E. coli BL21(DE3)
In short: (§2)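 Ki derived by Cheng-Prusoff from IC50, with each protein batch's measured ^3H-PDBu Kd. Displacement of ^3H-PDBu from E. coli-produced GST-fused C1b domains or full-length human PKC was run 10 min at 37°C plus 20 min on ice, with filter capture and scintillation counting.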

C1b domain of human PKCε = target: T2, C1b domain of human PKCε (Homo sapiens, UniProt Q02156); assay: Competitive 3H-PDBu binding to C1b domain of PKCε
T2 construct: Genes encoding C1b domains of human PKCα, δ, ε, θ, and PKD1 (PKCμ) were synthesized; made in house; host or cells: E. coli BL21(DE3)
In short: as §2

[3] = tested on: Panc2.13 (Pancreatic) cell line; assay: Proliferation of Panc2.13; type: cell-based; conditions: for ratio of (IC50 of K01)/(IC50 of compound), Panc2.13: value in parenthesis; for IC50: read-out: IC50 in μM Panc2.13 (Pancreatic)
In short: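 After a 24 h settling period at 37° C, each line received compound from a 3-fold serial series with DMSO capped at 0.25%. Incubation ran 96 h before CellTiter Glo reagent was added. Inhibition % = (Max − sample)/Max × 100, with Max from DMSO-treated cells.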

[4] = tested on: phosphorylation of PKCμ, PKCδ and Erk1/2 in A549 lung cancer cells; type: cell-based; conditions: 0.3 μM, 30 minutes, Western blot (FIG. 1)
Method: Cells were then treated with different drugs at indicated concentrations for 30 minutes. […] Imagequant LAS4000 (GE) was used to scan membranes if secondary antibodies anti-mouse IgG HRP conjugate or anti-rabbit IgG HRP conjugate (dilutions from 1:2000-1:10000) were used. For ProteinSimple Wes system, manufacture's procedure was followed (ProteinSimple 12-230 kDa Wes Separation Module) for sample preparation, loading, running, and data analysis.
Phosphorylation of these sites has been linked to acute activation or catalytic activity of the PKC isoforms and Erk1/2. High level of phosphorylation indicates strong activation.

[5] = tested on: A549 non-small cell lung cancer cell line; assay: Proliferation of A549 (CellTiter Glo); type: cell-based; conditions: Homo sapiens, A549, 96 h, read-out: IC50 μM (A549 Cell Line)
In short: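 Luminescent CellTiter Glo read-out after 96 h compound exposure of A549 cells plated at 1,000/well and rested 24 h at 37° C; DMSO kept ≤0.25%, dilutions 3-fold. Inhibition taken relative to DMSO-treated wells; IC50, relative IC50 and top inhibition derived by curve fitting.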

PANC1 cells = assay: Sphere formation assay (cancer stemness); type: cell-based; conditions: Homo sapiens, PANC-1, read-out: concentration exhibiting at least 50% inhibition on the sphere forming efficiency
Method: A group of diterpenoid compounds of the present disclosure were tested to assess their effects on blocking formation of spheres from cancer cell lines such as PANC1, a K-Ras mutant pancreatic cell line. Briefly, PANC1 cells were harvested, re-suspended as single cell suspensions, counted and seeded into Ultra Low Attachment Culture 96-well plate (Corning, Cat #3474) at 100 cells/well in 100 μl of complete media (with 10% FBS) containing 2% Matrigel (Corning, Cat #354234) and DMSO or compounds. Six replicates per condition were seeded. The seeded cells were placed in the 37° C. tissue culture incubator. 10 μl of low serum containing media (with 0.1% FBS) was added to each well every week. Spheres formed after 3-4 weeks were counted. Sphere forming efficiency was expressed as percentage of # of spheres/# of cells seeded.

T1 sequence (Q05655 230-280 limits assumed): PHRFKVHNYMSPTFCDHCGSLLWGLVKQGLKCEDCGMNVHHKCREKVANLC
T2 sequence (Q02156 242-292 limits assumed): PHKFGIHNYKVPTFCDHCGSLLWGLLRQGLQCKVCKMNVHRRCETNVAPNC

CC1=C[C@H]2[C@@]3(O)[C@H](C)C[C@]4(OC(=O)[C@@H](N)CC5CCCCC5)[C@H]([C@@H]3C=C(CO)C[C@]2(O)C1=O)C4(C)C [Compound K101-C1327]
ratio of (IC50 of K01)/(IC50 of compound), HL-60 [1]: 2.32 | IC50 [1]: 0.03 to 0.06 µM | IC50 [2]: 0.001 to 0.01 µM | ratio of (IC50 of K01)/(IC50 of compound), Mino [2]: 7.33 | Ki (C1b domain of human PKCδ): < 5 nM | Ki (C1b domain of human PKCε): 1 to 30 nM | ratio of (IC50 of K01)/(IC50 of compound), Panc2.13 [3]: 7.1 | IC50 [3]: 0.1 to 0.2 µM | phosphorylation of PKC (PKD/PKCμ), PKCδ and Erk1/2 [4]: induced high levels of phosphorylation | IC50 [5]: 0.06 to 0.1 µM

CC1=C[C@H]2[C@@]3(O)[C@H](C)C[C@]4(OC(=O)[C@@H](N)[C@]56C[C@H]7C[C@H](C[C@H](C7)C5)C6)[C@H]([C@@H]3C=C(CO)C[C@]2(O)C1=O)C4(C)C [Compound K101-C1347]
ratio of (IC50 of K01)/(IC50 of compound), HL-60 [1]: 16.2 | IC50 [1]: 0.001 to 0.01 µM | IC50 (PANC1 cells): ≤ 50 nM | IC50 [2]: 0.001 to 0.01 µM | ratio of (IC50 of K01)/(IC50 of compound), Mino [2]: 52.2 | Ki (C1b domain of human PKCδ): < 5 nM | Ki (C1b domain of human PKCε): 5 to 10 nM | ratio of (IC50 of K01)/(IC50 of compound), Panc2.13 [3]: 71.7 | IC50 [3]: 0.01 to 0.03 µM | IC50 [5]: 0.001 to 0.01 µM

CC1=C[C@H]2[C@@]3(O)[C@H](C)C[C@]4(OC(=O)[C@H](N)CCCCCCc5ccccc5)[C@H]([C@@H]3C=C(CO)C[C@]2(O)C1=O)C4(C)C [Compound K101-C134801]
ratio of (IC50 of K01)/(IC50 of compound), HL-60 [1]: 4.43 | IC50 [1]: 0.01 to 0.03 µM | IC50 (PANC1 cells): ≤ 150 nM | IC50 [2]: 0.001 to 0.01 µM | ratio of (IC50 of K01)/(IC50 of compound), Mino [2]: 21.3 | Ki (C1b domain of human PKCδ): 5 to 10 nM | Ki (C1b domain of human PKCε): 1 to 30 nM | ratio of (IC50 of K01)/(IC50 of compound), Panc2.13 [3]: 13.4 | IC50 [3]: 0.06 to 0.1 µM | IC50 [5]: 0.01 to 0.03 µM

CC1=C[C@H]2[C@@]3(O)[C@H](C)C[C@]4(OC(=O)[C@@H](N)CCCCCCc5ccccc5)[C@H]([C@@H]3C=C(CO)C[C@]2(O)C1=O)C4(C)C [Compound K101-C134802]
ratio of (IC50 of K01)/(IC50 of compound), HL-60 [1]: 12.1 | IC50 [1]: 0.001 to 0.01 µM | IC50 (PANC1 cells): ≤ 50 nM | IC50 [2]: 0.001 to 0.01 µM | ratio of (IC50 of K01)/(IC50 of compound), Mino [2]: 52.2 | Ki (C1b domain of human PKCδ): < 5 nM | Ki (C1b domain of human PKCε): 1 to 30 nM | ratio of (IC50 of K01)/(IC50 of compound), Panc2.13 [3]: 57.3 | IC50 [3]: 0.01 to 0.03 µM | IC50 [5]: 0.001 to 0.01 µM
